Where two headings read alike, the source gives them in different places.
Columns and labels:
[1] = target: T1, CtHtrA (Chlamydia trachomatis serovar D, UniProt P18584); set-up: method as in PMID 23796320; conditions: read-out: IC50 against CtHtrA; reversible covalent complex with CtHtrA; cited from earlier work
T1 construct: made in house; host or cells: E. coli BL21(DE3), pET22b

[2] = target: T2, Human Leukocyte Elastase (HLE) (Homo sapiens, UniProt P08246); assay: HLE protease inhibition assay; format: biochemical; conditions: for Relative Potency against HLE: [IC50 of JO146]/[IC50 test compound]
T2 construct: purchased Athens Research and Technology 16-15-051200
T2 sequence (P08246 30-247 limits assumed): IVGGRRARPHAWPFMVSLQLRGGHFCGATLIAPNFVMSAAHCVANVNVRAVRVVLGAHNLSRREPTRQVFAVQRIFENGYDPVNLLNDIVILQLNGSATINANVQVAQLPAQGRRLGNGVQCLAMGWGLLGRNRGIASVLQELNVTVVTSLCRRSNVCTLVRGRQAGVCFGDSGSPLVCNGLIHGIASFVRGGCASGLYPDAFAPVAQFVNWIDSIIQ
Description: Elastase was purchased from Athens Research and Technology (Cat No. 16-15-051200). Elastase (100 µg) was dissolved in Tris buffer (100 mM Tris, 20 mM CaCl2, pH 8.1, 3.14 mL), giving a concentration of 1.117 µM, and 25 µL was added to each well containing the respective inhibitor. The plate was incubated at 37 °C for 15 min.
N-Suc-AAA-pNA (Sigma Aldrich, Bayswater, Australia, S4760, 100 µL, 1 mg/mL, […]) was added to each well, and the absorbance was monitored every six minutes at 405 nm. The rate of change of absorbance was used as a comparison to controls to determine the % inhibition of protein in Microsoft Excel^TM (v2402), and these values were exported to GraphPad Prism (v8.0.1) for IC50 calculation.

[3] = target: T1, CtHtrA; assay: CtHtrA protease inhibition assay; format: biochemical; conditions: for Relative Selectivity: (relative CtHtrA potency)/(relative HLE potency); for IC50: IC50 against CtHtrA; for IC50 / Relative Potency against CtHtrA: control JO146; for Relative Potency against CtHtrA: [IC50 of control]/[IC50 test compound]
Description: The inhibitory activity of compounds 2a–g against CtHtrA was evaluated. […] As these compounds are reportedly covalent inhibitors of serine proteases, a true IC50 is unable to be calculated. Instead, the residual activity of the protease is monitored over time in response to a range of compound concentrations, and an IC50 value is interpolated from a dose–response curve (see Figures S2–S4 and Tables S1 and S2). This IC50 value is then compared to a positive control (JO146 was used for 2a–g, and 2g was used for 6a–h), giving the ‘relative potency’. This is the established method for assessing CtHtrA inhibitory potency. […] This effect may be due to depth restrictions within the S1 subpocket, as kinetic studies on the rates of protease inhibition in HLE were reduced by larger C-3 alkoxy substituents. Chain branching (iso-propyl and sec-butyl substituents) increased the activity, resulting in a 1.4-fold increase for 2e over 2b and a 2.8-fold improvement for 2g over 2c.
CtHtrA was expressed using an procedure adapted from the literature. Recombinant E. coli BL21(DE3) pET22b was grown in LB media containing 100 ug/mL ampicillin to an OD600 of 0.5-0.6 in 5 × 400 mL batches at 37 °C. Isopropyl β-D-1-thioglactopyranoside (1 M, 400 µL, 1 mM final concentration) was added to each flask and incubated at 30 °C with shaking at 150 rpm for an additional 2.5 h. The culture was centrifuged at 4000× g for 15 min at 4 °C, and the cell pellet was harvested and resuspended in lysis buffer (50 mM phosphate, 10 mM imidazole, 500 mM NaCl, 0.1% Triton X-100, 10% glycerol). Lysozyme was added to the suspended cells and was sonicated in 15 cycles of 15 s, with one minute between cycles while maintaining 4 °C, and then centrifuged at 8000× g for 20 min to remove any debris, retaining the supernatant for protein purification.
TALON® metal affinity resin (Takara cat no. 635652, 5 mL) was added to each lysate tube and washed sequentially with lysis buffer (2 × 45 mL) and stringency buffer (4 × 45 mL) and then eluted with elution buffer (2 × 5 mL), allowing incubations at 4 °C for 20 min per wash, and centrifuging at 2500× g and 4 °C between washes to pellet the resin. The eluates were dialyzed in Tris buffer (pH 7.0, 50 mM, 4 L) with magnesium chloride (20 mM) at 4 °C five times over 24 h, with a minimum of three hours per dialysis change. Protein expression and isolation were confirmed with SDS-PAGE Coomassie stained gel, which was examined for the band at the correct size, and a BCA assay to confirm purified protein concentration prior to use.
CtHtrA was added to 25 wells in a black 96-well plate (40–80 µL, 10 µL increments), to which Tris-HCl buffer (50 mM, pH 7.0 with 20 mM MgCl2) was added to bring the total volume to 90 µL for 10 wells and 85 µL for the remaining 15. JO146 (10 µM, 5 µL) was added to 5 wells and JO146 (1 µM, 5 µL) was added to another 5 wells, with DMSO (5 µL) being added to the remaining 5 as a control. The plate was incubated at 37 °C for 10 min before substrate (MCA-ENLHLPLPIIFK-DNP, 10 µL, 1 mg/mL, 50% isopropanol in buffer) was added and analyzed in a TECAN Infinite Pro M200 plate reader with an excitation wavelength of 340 nm and fluorescence measured at 405 nm with four reads per well at 60 s intervals. A minimum volume of CtHtrA granting a fluorescence change of 300 min^−1 was used for subsequent assay.
The determined appropriate volume of CtHtrA in buffer was added to a 96-well non-transparent black plate and diluted to 85 µL with buffer solution. Drug or control (5 µL) at a maximum of 20% DMSO/80% buffer was added to the appropriate well with DMSO controls, and the plate was incubated for 10 min to allow activation by the protein. MCA-ENLHLPLPIIFK-DNP (Mimotopes, Australia, 1 mg/mL, 10 µL) was added and immediately monitored on a TECAN M200 Infinite plate reader at 37 °C every 60 s for 30 min, using the same wavelengths as for the activity evaluation. […]

[4] = MTS cell viability assay, HEp-2 cells; format: cell-based, human; conditions: human, HEp-2 cells, 125 µM, read-out: HEp-2 cell viability, % of DMSO-treated control cells
Description: (§1) The cytotoxic effects of the 4-chloroisocoumarin compounds 2a–g and 6a–h (24 h) were tested against HEp-2 and McCoy B cells using the MTS cell viability assay. HEp-2 and McCoy B cells were selected, as these are routinely used for the cultivation of chlamydial species, and low cytotoxicity against host cells is required to evaluate the anti-chlamydial properties of a test compound [27].
(§2) HEp-2 (human epithelial type 2, CCL-23, ATCC®, Virginia, USA) or McCoy B (mouse fibroblast, CRL-1696, ATCC®) cells were grown to 80–100% confluence, and cell density was determined with a haemocytometer. Cells were then diluted to 1 × 10^5 cells/mL, and 100 µL was added to each well in a 96-well plate, with 3 wells left as controls. Cells were grown for 24 h, and the media was removed and then replaced with fresh media containing 0.1% DMSO and the drug for testing in triplicate. Drugs and cells were incubated for 24 h, and then 20 µL of MTS and PMS solution was added and then incubated for a further four hours. Absorbance was measured at 490 nm on a TECAN M200 Infinite plate reader and data were processed using Microsoft Excel^TM with the following equation to determine cell viability relative to DMSO controls. Cellviability%=AbsorbanceDrug−AbsorbanceDye/AbsorbanceDMSO−AbsorbanceDye

[5] = system: HEp-2 cells; assay: MTS cell viability assay, HEp-2 cells; format: cell-based, human; conditions: 62.5 and 31.25 µM, 24 h
Description: as §1, §2

T1 sequence (P18584 17-497): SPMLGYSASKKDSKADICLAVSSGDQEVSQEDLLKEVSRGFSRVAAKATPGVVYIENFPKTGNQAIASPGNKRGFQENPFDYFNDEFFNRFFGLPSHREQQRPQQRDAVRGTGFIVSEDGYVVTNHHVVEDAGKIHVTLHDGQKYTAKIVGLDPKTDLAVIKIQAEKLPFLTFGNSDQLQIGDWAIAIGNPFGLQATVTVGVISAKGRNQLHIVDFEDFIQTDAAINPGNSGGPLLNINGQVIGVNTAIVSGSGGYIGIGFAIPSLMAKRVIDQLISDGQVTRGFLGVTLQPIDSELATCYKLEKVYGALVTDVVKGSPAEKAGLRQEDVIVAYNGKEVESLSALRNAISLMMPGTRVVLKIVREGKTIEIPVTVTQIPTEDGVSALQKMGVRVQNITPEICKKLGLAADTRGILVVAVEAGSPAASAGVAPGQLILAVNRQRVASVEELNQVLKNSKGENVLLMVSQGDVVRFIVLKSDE

Structure (SMILES) | IC50 [1] [µM] | IC50 [2] [µM] | Relative Potency against HLE [2] | Relative Selectivity [3] | IC50 ([3]; Table S2, Batch 1) [µM] | IC50 ([3]; Table S2, Batch 2) [µM] | Relative Potency against CtHtrA [3] | IC50 ([2]; Table S1, variable slope four parameter fit, read-out: IC50 against HLE) [µM] | viability at 24 h, 125 µM [4] [%] | effect on HEp-2 cell viability [5]
CC(C)[C@H](NC(=O)OC(C)(C)C)C(=O)N1CCCC1C(=O)N[C@@H](C(C)C)P(=O)(Oc1ccccc1)Oc1ccccc1 (some centres unmarked) [JO146, reference compound] | 12 | 0.817 | 1.00 | 1.00 | 71.5 | 60 | 1.00 |  |  | 
COc1oc(=O)c2ccccc2c1Cl [Compound 2a, 3-Methoxy-4-chloroisocoumarin] |  |  | 0.0207 | 113.0 | 30.6 |  | 2.33 | 39.5 | 50 | did not produce significant effects

Reference: article PMC11013143, “4-Chloroisocoumarins as Chlamydial Protease Inhibitors and Anti-Chlamydial Agents” (Molecules, 2024)
